Assay results published in patent US20040229936A1, “Treatment of hepatitis C virus infection with sesquiterpene lactones” (priority 2003, published 2004).

Assays:
[1] = test system: HCV RNA replication in Huh-7 cells containing HCV sub-genomic replicons (Ava.5); experiment: Inhibition of HCV RNA replication (replicon cells, RT and Q-PCR, normalised to GADPH); details: for EC50: Hepatitis C virus, 24 h, read-out: EC50 value (effective concentration at which HCV RNA replication was inhibited by 50%)
Description: Huh-7 cells containing HCV sub-genomic replicons (Ava.5) were maintained in DMEM supplemented with 10% heat-inactivated FCS in a humidified atmosphere containing 5% of CO2. The medium also contained 1 mg/mL G418 (an aminoglycosidic antibiotic agent obtained from Promega, WI) as a selective pressure for the maintenance of HCV replicon's RNA replication. […] Cells were treated with sesquiterpene lactones and control compounds at various concentrations. Then, cells were harvested after 24 hr of the treatment. Subsequently, total cellular RNA's were extracted and quantified as follows.
Total RNA of cells was extracted using RNeasy Mini Kit (QIAGEN). The concentration of total RNA was measured by absorption at 260 nm. […] RNA was added with RNase-free ddH2O to a final volume of 10.5 μL and denatured for 10 min at 65° C. Reverse transcription (RT) reactions were carried out at 42° C. for 1 hr using Expand-RT (Roche Biochemicals, Mannheim, Germany) in a total volume of 20 μL containing a previously denatured primer-RNA mixture, 1 mM each of deoxynucleotide triphosphates (dNTPs), 50 units reverse transcriptase, and 20 units RNase inhibitor (Promega, Madison, Wis.).
Quantitative PCR (Q-PCR) was carried out by LightCycler-DNA Master using SYBR Green 1 for real-time detection of double-stranded DNA (dsDNA) (Roche Diagnostics GmbH, Mannheim, Germany). The intensity of fluorescence was recorded versus PCR cycle numbers and the relative amounts of HCV RNA were calculated corresponding to the standard curve. The standard curve was derived from five serial dilutions of reference DNA, the corresponding cDNA of HCV RNA, under criteria recommended by the supplier.
The relative copy numbers HCV RNA and a house-keeping gene, glyceraldehyde-3-phosphate dehydrogenase (GADPH), were determined by Q-PCR utilizing the following primer sets:
PCR was performed as followed: (i) denaturing conditions: 95° C., 60 sec; (ii) amplification conditions: ramp to 95° C., 0 sec; 64° C., 10 sec; 72° C., 10 sec. The specificity of an amplification reaction was determined by performing a melting curve analysis with a temperature range from 65° C. to 95° C.
HCV RNA copy numbers were divided by their corresponding GADPH copy numbers in the same sample for normalization. Effect of sesquiterpene lactones on HCV RNA replication was represented by “relative copy number,” which was obtained by comparing HCV RNA copy numbers with sesquiterpene lactones treatment to HCV RNA copy numbers without sesquiterpene lactones treatment. The latter was designated as 100%. All measurements were performed in triplicates to reach statistical significance.

[2] = test system: Huh-7 cells containing HCV sub-genomic replicons (Ava.5); experiment: Inhibition of cell growth (MTS cell viability / cytotoxicity assay); details: Hepatitis C virus, read-out: IC50 value (concentration at which cell growth was inhibited by 50%)
Description: Huh-7 cells containing HCV sub-genomic replicons (Ava.5) were provided by Apath, LLC. […] Cells were maintained in Dulbecco's modified Eagle's medium (DMEM) supplemented with 10% fetal calf serum (FCS) in a humidified atmosphere containing 5% of CO2.
MTS and PMS, both in powder form, were purchased from Sigma or Promega. MTS was dissolved in PBS (2 mg/mL) and PMS (0.38 mg/mL) was dissolved in ddH2O as stock solutions. […] Prior to the assay, a 2 mL MTS/PMS solution containing MTS and PMS (20:1) was added to the cells with 8 mL of phenol red-free DMEM. The cell culture medium was then aspirated off, washed with PBS, and 100 μL of the MTS/PMS mixture was added into each well. After incubation at room temperature for 2 hr, optical densities of each sample were measured at OD490 with a 96-well microtiter plate reader. Data were obtained with six repeats for each treatment.

`CC1=CCCC2(C)OC2C2OC(=O)C(CN3CCOCC3)C2CC1` (centres unmarked) [Compound 49, 4,8-Dimethyl-12-morpholin-4-ylmethyl-3,14-dioxa-tricyclo[9.3.0.02,4]tetradec-7-en-13-one] showed an EC50 [1] of no more than 6000 nM.

`CC1=CCCC2(C)OC2C2OC(=O)C(CN(C)C)C2CC1` (centres unmarked) [Compound 44, 12-Dimethylaminomethyl-4,8-dimethyl-3,14-dioxa-tricyclo[9.3.0.02,4]tetradec-7-en-13-one] showed an EC50 [1] of no more than 3000 nM.

For `CC1=CCCC2(C)OC2C2OC(=O)C(CSCC(N)C(=O)O)C2CC1` (centres unmarked) [Compound 53, 2-Amino-3-(4,8-dimethyl-13-oxo-3,14-dioxa-tricyclo[9.3.0.02,4]tetradec-7-en-12-ylmethylsulfanyl)-propionic acid], the EC50 [1] was no more than 6000 nM.

`CCN(CC)CC1C(=O)OC2C1CCC(C)=CCCC1(C)OC21` (centres unmarked) [Compound 45, 12-Diethylaminomethyl-4,8-dimethyl-3,14-dioxa-tricyclo[9.3.0.02,4]tetradec-7-en-13-one] showed an EC50 [1] of no more than 3000 nM.

In the case of `CC1=CCCC2(C)OC2C2OC(=O)C(CN3CCCCCC3)C2CC1` (centres unmarked) [Compound 48, 12-Azepan-1-ylmethyl-4,8-dimethyl-3,14-dioxa-tricyclo[9.3.0.02,4]tetradec-7-en-13-one], the EC50 [1] is reported as no more than 3000 nM.

`CC1=CCCC2(C)OC2C2OC(=O)C(CN3CCCCC3)C2CC1` (centres unmarked) [Compound 47, 4,8-Dimethyl-12-piperidin-1-ylmethyl-3,14-dioxa-tricyclo[9.3.0.02,4]tetradec-7-en-13-one] showed an EC50 [1] of no more than 3000 nM.

For IFNα, the “inhibition of HCV RNA replication” value ([1]; 50 IU/1 mL of IFNα alone) was 25% and the “inhibition of HCV RNA replication” value ([1]; 100 IU/mL of IFNα alone) was 40%.

Compound `CC1=CCCC2(C)OC2C2OC(=O)C(CN3CCCC3)C2CC1` (centres unmarked) [Compound 46, 4,8-Dimethyl-12-pyrrolidin-1-ylmethyl-3,14-dioxa-tricyclo[9.3.0.02,4]tetradec-7-en-13-one] has an EC50 [1] of no more than 3000 nM.

Work on `CC1=CCCC2(C)OC2C2OC(=O)C(CN3CCCC3C(=O)O)C2CC1` (centres unmarked) [Compound 50, 1-(4,8-Dimethyl-13-oxo-3,14-dioxa-tricyclo[9.3.0.02,4]tetradec-7-en-12-ylmethyl)-pyrrolidine-2-carboxylic acid] yielded an IC50 [2] of 8100 nM and an EC50 [1] of no more than 3000 nM.
